We go through 3 molecules from US20060018940A1, “Stabilized antimicrobial composition” (E. I. DU PONT DE NEMOURS AND COMPANY, priority 2004, published 2006).

Assay type in all cases: cell-based
Assay [1] has as its system Salmonella choleraesuis ATCC 10708.
In assay [2] the test system is Pseudomonas aeruginosa ATCC 15442. Put plainly: Bacterial efficacy, suspension test (modified AOAC 965.13), plate count on TSA.
Assay [3] relates to Staphylococcus aureus ATCC 6538. Described as above.
For assay [4], the system named is Aspergillus fumigatus ATCC 1098. Put plainly: Fungicidal activity (modified AOAC Method 955.17), surviving spores. The following applies: for reduction of the fungal bioburden (words): within 15 minutes of treatment, amounts equivalent to those in the tablet solution. The protocol:
This assay had several modifications from the published AOAC Fungicidal Activity of Disinfectants Protocol, Method 955.17. Aspergillus fumigatus ATCC 1098 was grown on Malt Extract Agar (available from Becton Dickinson, Billerica, Mass.) plates, and spores were harvested. Spores were stored in filter-sterilized Millipore water at −20° C. The spore preparation used for this experiment is detailed below. A freezer stock of A. fumigatus was defrosted and diluted to obtain an inoculum suspension for this experiment. The inoculum preparation was estimated to be approximately 5×10^6 conidia/mL. The following test solutions were prepared using filter sterilized Millipore water in steam-sterilized 4L bottles:
Water Control: (filter-sterilized water only), pH 6.28.
OXONE Control: 3.78 grams OXONE in 1 gallon (3.8L) sterile water, buffered to pH 4.43 using 0.98 g sodium bicarbonate and +5.25 g 10% H2SO4).
Chlorite Control: 0.26 grams of sodium chlorite in 1 gallon sterile water buffered to pH 4.55 (1.8 g 10% H2SO4).
Buffer Control: sodium bicarbonate, pH adjusted to 4.4.
Chlorine Dioxide: anthium dioxide (stabilized sodium chlorite available from IDI, North Kingston, R.I.) was acidified with HCl.
CLOROX control: 4.17% CLOROX bleach available from Clorox Company, Oakland, Calif. (v/v) in Millipore water by mixing 4.17 mL of Clorox bleach and water up to 100 mL total volume.
Tablet test Solution (Example 21: 2 tablets of Example 6 were dissolved in one gallon (3.8 L) of deionized water. The total tablet weight was 5.13 grams. The pH of the resulting solution was 5.2.
Reaction tubes: 5 mL of each test solution was aliquoted into 25×150 mm test culture tubes, capped and labeled according to Table 10. 9 mL of D/E (Dey/Engley) Neutralizing Broth (available from Becton Dickinson, Billerica, Mass.) was added to each of 28 test tubes and the tubes were capped. Butterfield buffer blanks were arranged for dilution of neutralized samples, and Malt Extract Agar plates were numbered for spore enumerations of the diluted, neutralized samples. With a graduated pipette, 0.5 mL of spore inoculum (approx. 10^6 condia/mL) was added to the first tube of test solution and gently shaken. After 5 and 15 minute exposures to the respective test solutions, samples were gently shaken and 1 mL samples were removed from each reaction mixture (spore-test solution) using an Eppendorf pipette and placed in 9 mL D/E (Dey/Engley) Neutralizing Broth. The inoculum was further diluted to approximately 10^4 condia/mL. Two more reaction tubes (water and OXONE-chlorite) and four Dey/Engley neutralization tubes were prepared to evaluate the efficacy of the tablet solution versus a final inoculum density of 10^3 condia/mL in the reaction tube. Samples were reacted for 15 minutes only. Dilutions of neutralized samples were prepared. Two 100 μL aliquots of all samples in D/E (Dey/Engley) Neutralizing Broth were plated on Malt Extract Agar and incubated at 25 °C until the appearance of colonies. Plates were counted after colonies appeared, roughly 4 days after incubation. Several dilutions of the inoculum spore suspensions were also plated on Malt Extract Agar to obtain an accurate count of viable spores used as inoculum. The samples were incubated at 25° C. and counted after the appearance of colonies, after about 4 days of incubation.
Buffer control data was taken after 15 minutes. CLOROX control data was taken after 5 minutes of treatment.

Setting [5] is: 30 sec exposure, 1,008 ppm Oxone, 55.5 ppm Chlorite, 23.2 ppm ClO2.
[6] abbreviates: 30 sec exposure, 1,008 ppm Oxone, 55.5 ppm Chlorite, 23.2 ppm ClO2, low level of detection 1.0E+01.
Setting [7] is: 10 min exposure, 1,008 ppm Oxone, 55.5 ppm Chlorite, 23.2 ppm ClO2.
Setting [8] is: 10 min exposure, 1,008 ppm Oxone, 55.5 ppm Chlorite, 23.2 ppm ClO2, low level of detection 1.0E+01.
The mark [9] stands for this setting: 30 sec exposure, Example 20 = 1,008 ppm Oxone + 55.5 ppm Chlorite, controls 1,008 ppm Oxone, 55.5 ppm Chlorite, 23.2 ppm ClO2, low level of detection 1.0E+01.
[10] abbreviates: 5 min, 1 × 10^6 conidia/mL inoculum in reaction mix, 2 replicates average, 2 Tabs 3.8 L, OXONE 3.78 g/gallon, chlorite 0.26 g/gallon, ClO2 ~23 ppm, 4.17% CLOROX.
Where [11] appears, read: 15 min, 1 × 10^6 conidia/mL inoculum in reaction mix, 2 replicates average, 2 Tabs 3.8 L, OXONE 3.78 g/gallon, chlorite 0.26 g/gallon, ClO2 ~23 ppm.

Where “and” joins values, the source holds several entries; their conditions need not be identical. Equal values may be shown once. Entries after “also recorded” stand apart in the source; their conditions may differ. Read-outs that look alike come from different tables or passages of the source.

With `[O][Cl+][O-]` [ClO2, chlorine dioxide], in assay [1], the CFU/mL stood at 1.00E+01 CFU/mL; the “Δt (log difference test and control densities)” value was 5.1 log and 5.3 log. In assay [2], the CFU/mL stood at 1.00E+01 CFU/mL; the “Δt (log difference test and control densities)” value is 5 log and 5.0 log and 5.1 log. Also, in assay [3], the CFU/mL worked out at 1.00E+01 CFU/mL; the “Δt (log difference test and control densities)” value is 5.1 log and 5.2 log. Moreover, in assay [4], the “Surviving bioburden counts (germinating spores - conidia/mL)” value (“Surviving bioburden counts” for short) is 0.00E+00 conidia/mL and the “log A. fumigatus spores killed” value is recorded as 5 log.
In the case of sodium chlorite, the “Δt (log difference test and control densities)” value in assay [1] (setting [5]) is reported as −0.3 log; in assay [1] (setting [7]), 0.2 log; in assay [2] (setting [5]) it was −0.1 log; in assay [2] (setting [7]), 0.0 log; in assay [3] (setting [5]) it was 0.0 log; in assay [3] (setting [7]) it was 0.1 log. The CFU/mL in assay [1] (setting [6]) is 3.09E+06 CFU/mL; in assay [1] (setting [8]), 1.27E+06 CFU/mL; in assay [2] (setting [6]), 1.17E+06 CFU/mL; in assay [2] (setting [8]), 1.21E+06 CFU/mL; in assay [3] (setting [9]) it was 1.23E+06 CFU/mL; in assay [3] (setting [8]) it was 1.20E+06 CFU/mL. The results for the “Surviving bioburden counts” value in assay [4] (setting [10]) and in assay [4] (setting [11]) were 4.25E+05 conidia/mL and 6.25E+05 conidia/mL, respectively. Further, the “reduction of the fungal bioburden (words)” value in assay [4] (listed as chlorite) was “not able to reduce the bioburden”; in assay [4] (listed as sodium chlorite) it was “ineffective in reducing the fungal bioburden”.
For the molecule “triple salt of potassium monopersulfate, potassium hydrogen sulfate and potassium sulfate [Oxone]”, the “Δt (log difference test and control densities)” value was 0.0 log in assay [2] (setting [5]), 5.1 log in assay [2] (setting [7]), 0.0 log in assay [3] (setting [5]) and 0.4 log in assay [3] (setting [7]). Moreover, the CFU/mL in assay [2] (setting [6]) came to 9.50E+05 CFU/mL; in assay [2] (setting [8]), 1.00E+01 CFU/mL; in assay [3] (setting [9]), 1.52E+06 CFU/mL; in assay [3] (setting [8]), 6.15E+05 CFU/mL. For the same molecule, the “Surviving bioburden counts” value amounted to 3.45E+05 conidia/mL in assay [4] (setting [10]) and 5.70E+05 conidia/mL in assay [4] (setting [11]). For the same molecule, the “reduction of the fungal bioburden (words)” value in assay [4] was “not able to reduce the bioburden; also recorded: ineffective in reducing the fungal bioburden”.
